In data set [1] the target is T1, Matrilysin (Homo sapiens) (UniProt P09237).
T1 sequence (whole entry): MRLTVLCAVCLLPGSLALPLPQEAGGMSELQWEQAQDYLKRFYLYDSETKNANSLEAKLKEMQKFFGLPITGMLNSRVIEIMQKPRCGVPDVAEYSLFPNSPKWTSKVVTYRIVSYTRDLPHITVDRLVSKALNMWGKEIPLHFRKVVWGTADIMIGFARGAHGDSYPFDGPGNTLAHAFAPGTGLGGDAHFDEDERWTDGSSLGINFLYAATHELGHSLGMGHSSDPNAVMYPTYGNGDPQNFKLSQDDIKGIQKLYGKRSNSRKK
The data set can be described thus: Inhibition of matrix metalloprotease-7 (Matrilysin).

The target in data set [2] is T2, Interstitial collagenase (Homo sapiens) (UniProt P03956).
T2 sequence (whole entry): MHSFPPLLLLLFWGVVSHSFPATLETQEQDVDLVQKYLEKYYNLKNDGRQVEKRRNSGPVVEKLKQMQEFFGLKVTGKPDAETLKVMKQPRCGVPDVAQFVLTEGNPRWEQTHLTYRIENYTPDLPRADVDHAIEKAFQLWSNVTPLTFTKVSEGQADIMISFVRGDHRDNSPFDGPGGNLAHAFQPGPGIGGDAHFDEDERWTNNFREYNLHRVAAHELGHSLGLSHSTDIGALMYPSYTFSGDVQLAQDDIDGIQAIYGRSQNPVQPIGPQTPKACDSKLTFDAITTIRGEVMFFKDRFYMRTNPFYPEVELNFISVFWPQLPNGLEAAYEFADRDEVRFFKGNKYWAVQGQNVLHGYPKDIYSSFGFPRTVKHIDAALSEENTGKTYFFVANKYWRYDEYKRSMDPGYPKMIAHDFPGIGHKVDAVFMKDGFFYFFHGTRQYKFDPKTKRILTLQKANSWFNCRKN
Kind of data set: Inhibition of matrix metalloprotease-1 (HFC).

In data set [3] the target is Stromelysin-1 (Homo sapiens) (UniProt P08254). The data set can be described thus: Inhibition of matrix metalloprotease-3 (Stromelysin-1).
Data set [4] has as its target 72 kDa type IV collagenase (Homo sapiens) (UniProt P08253). The data set can be described thus: Inhibition of matrix metalloprotease-2 (Gel.A).
In data set [5] the test system is Rattus norvegicus. Kind of data set: Compound was tested for inhibition of Tumor Necrosis Factor production in rat at a peroral dose of 5 mg/kg. In kind it is functional. The settings on record: route oral.
Data set [6] has as its system Rattus norvegicus. The data set can be described thus: Compound was tested for inhibition of Tumor Necrosis Factor production in rat at a peroral dose of 10 mg/kg. In kind it is functional. Conditions: route oral.
Data set [7] concerns Rattus norvegicus. Kind of data set: Compound was tested for inhibition of Tumor Necrosis Factor production in rat at a peroral dose of 2.5 mg/kg. It is filed as functional. Conditions: route oral.
Data set [8] is described as follows: Maximum concentration value was evaluated for high sustained blood levels in rat after 1 hr of administration. In kind it is ADME, organism-based.
For data set [9], the species on record is Rattus norvegicus. The data set can be described thus: Compound was tested for area under curve in rat. It is filed as ADME, organism-based. Also on record: concentration or dose not given beside the values. The settings on record: in vivo.
The nature of data set [10]: Maximum concentration value was evaluated for high sustained blood levels in rat after 30 min of administration. It is filed as ADME, organism-based.
Data set [11] in a line: Maximum concentration value was evaluated for high sustained blood levels in rat after 2 hr of administration. It is filed as ADME, organism-based.

As a reminder, the inhibition in vivo is the change of the read-out against control, counted positive when it falls. For orientation: Cmax means the highest concentration seen after dosing. The AUC is concentration integrated over time.

Chain of 72 kDa type IV collagenase (Homo sapiens) (P08253 110-660 limits assumed): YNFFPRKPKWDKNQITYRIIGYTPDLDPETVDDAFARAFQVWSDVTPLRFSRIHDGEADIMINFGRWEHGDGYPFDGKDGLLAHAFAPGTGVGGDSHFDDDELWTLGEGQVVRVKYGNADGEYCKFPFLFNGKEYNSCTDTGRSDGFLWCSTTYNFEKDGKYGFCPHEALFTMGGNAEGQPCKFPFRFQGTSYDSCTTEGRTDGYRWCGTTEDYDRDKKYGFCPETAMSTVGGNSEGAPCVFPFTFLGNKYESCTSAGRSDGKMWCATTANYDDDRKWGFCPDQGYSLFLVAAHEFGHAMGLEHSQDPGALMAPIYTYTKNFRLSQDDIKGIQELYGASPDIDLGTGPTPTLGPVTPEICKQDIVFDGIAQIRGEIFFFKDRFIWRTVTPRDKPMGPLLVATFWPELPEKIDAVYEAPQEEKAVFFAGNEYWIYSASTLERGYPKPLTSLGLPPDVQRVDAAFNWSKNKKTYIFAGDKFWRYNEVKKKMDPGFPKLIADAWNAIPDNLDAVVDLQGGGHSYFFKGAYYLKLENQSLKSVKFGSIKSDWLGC
Chain of Stromelysin-1 (Homo sapiens) (P08254 100-477 limits assumed): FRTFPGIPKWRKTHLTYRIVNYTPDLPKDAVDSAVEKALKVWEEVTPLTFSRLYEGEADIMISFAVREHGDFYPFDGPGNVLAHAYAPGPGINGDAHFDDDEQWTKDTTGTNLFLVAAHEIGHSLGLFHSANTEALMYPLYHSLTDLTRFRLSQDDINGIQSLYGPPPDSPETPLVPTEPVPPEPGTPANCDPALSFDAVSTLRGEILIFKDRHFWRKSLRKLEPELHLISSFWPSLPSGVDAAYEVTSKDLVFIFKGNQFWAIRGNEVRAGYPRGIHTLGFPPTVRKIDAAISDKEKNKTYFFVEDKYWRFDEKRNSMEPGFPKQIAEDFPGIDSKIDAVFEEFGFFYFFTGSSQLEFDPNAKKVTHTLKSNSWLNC

Turning to `CNC(=O)[C@@H](NC(=O)[C@H](CC(C)C)[C@@H](C(=O)NO)C1CCN(C)CC1)C(C)(C)C`, the Activity in data set [1] amounted to 200 nM; in data set [2], 30 nM; in [3] it was 500 nM; in data set [4], 3 nM.
For the compound `CC(C)CC(C(=O)N[C@H](C(=O)Nc1ccccn1)C(C)(C)C)C(C(=O)NO)C1CCCC1` (single isomer, unassigned; 12m), the Activity in data set [2] was 20 nM; in data set [3], 50 nM; in data set [4], 100 nM.
With `CNC(=O)[C@@H](NC(=O)C(CC(C)C)C(C(=O)NO)C1CCC(C(C)(C)C)CC1)C(C)(C)C` (single isomer, unassigned), the Activity in [1] came to 50 nM; in data set [2], 40 nM; in data set [3], 100 nM; in [4], 30 nM.
As for `CNC(=O)[C@@H](NC(=O)C(CC(C)C)C(C(=O)NO)C1CCCC1)C(C)(C)C` (single isomer, unassigned), testing at 5 mg/kg in the data set with Rattus norvegicus [5] gave an inhibition in vivo of 92%. Also, the Activity turned out to be 20 nM in [1], 4 nM in [2], 30 nM in data set [3] and 3 nM in [4]. This compound also returned an inhibition in vivo at 10 mg/kg in the data set with Rattus norvegicus [6] of 98%. Moreover, in the data set with Rattus norvegicus [7], at 2.5 mg/kg the inhibition in vivo was 94%. This compound yielded a peak concentration (Cmax) in [8] of 336 ng/mL. For the same compound, the AUC in the data set listed under Rattus norvegicus [9] turned out to be 2090 ng·h/mL.
As for `CNC(=O)[C@@H](NC(=O)[C@H](CC(C)C)[C@@H](C(=O)NO)C1CCC(C)CC1)C(C)(C)C` (stereo not given in full), the Activity amounted to 7 nM in [1], 4 nM in data set [2], 40 nM in data set [3] and 9 nM in [4].
With `CNC(=O)[C@@H](NC(=O)[C@H](CC(C)C)[C@@H](C(=O)NO)C(C)C)C(C)(C)C`, the Activity in data set [1] stood at 5 nM; in data set [2], 1 nM; in [3], 40 nM; in [4], 1 nM. In [10], the Cmax was determined as 376 ng/mL. In the data set listed under Rattus norvegicus [9], this compound displayed an AUC of 895 ng·h/mL.
Turning to `CC(C)CC(C(=O)N[C@H](C(=O)Nc1ccccn1)C(C)(C)C)C(C(=O)NO)C1CCCC1` (single isomer, unassigned; 12j) [listing 1 of 2 here], the Activity was found to be 3 nM in [1], 3 nM in data set [2], 20 nM in [3] and 30 nM in data set [4].
For `CC(C)C[C@@H](C(=O)N[C@H](C(=O)Nc1ccccn1)C(C)(C)C)[C@@H](C(=O)NO)C1CCC(C)CC1` (stereo not given in full), the Activity in [1] was determined as 3 nM; in [2] it was 5 nM; in [3], 20 nM; in data set [4] it was 40 nM.
The compound `CC(C)CC(C(=O)N[C@H](C(=O)Nc1ccccn1)C(C)(C)C)C(C(=O)NO)C1CCCC1` (single isomer, unassigned; 12j) [listing 2 of 2 here] registered a Cmax in data set [11] of 70.7 ng/mL. In addition, in the data set listed under Rattus norvegicus [9], the AUC was determined as 899 ng·h/mL.
As for `CNC(=O)[C@@H](NC(=O)C(CC(C)C)C(O)C(=O)NO)C(C)(C)C` (single isomer, unassigned), in the data set on Rattus norvegicus [5], the inhibition in vivo at 5 mg/kg stood at 50%. For the same compound, the Activity in [1] is 20 nM; in data set [2], 5 nM; in [3], 200 nM; in data set [4], 6 nM. The same compound registered an inhibition in vivo at 10 mg/kg with Rattus norvegicus [6] of 69%. For the same compound, in the data set with Rattus norvegicus [7], the inhibition in vivo at 2.5 mg/kg was 11%.
Consider `CNC(=O)[C@@H](NC(=O)[C@H](CC(C)C)[C@@H](C(=O)NO)C1CCSC1)C(C)(C)C` (stereo not given in full), for which the Activity in data set [1] is 4 nM; in data set [2], 5 nM; in [3], 40 nM; in data set [4], 5 nM.
On to `CNC(=O)[C@@H](NC(=O)C(CC(C)C)C(C(=O)NO)C1CC1)C(C)(C)C` (single isomer, unassigned), for which the Activity in [1] is 200 nM; in data set [2], 20 nM; in [3], 300 nM; in data set [4], 100 nM. This compound also yielded a Cmax in data set [10] of 106 ng/mL. In the data set filed under Rattus norvegicus [9], this compound yielded an AUC of 1020 ng·h/mL.
`CNC(=O)[C@@H](NC(=O)C(CC(C)C)C(C(=O)NO)C1CCCCC1)C(C)(C)C` (single isomer, unassigned): the Activity in data set [1] was 20 nM; in [2], 4 nM; in data set [3] it was 30 nM; in [4], 10 nM. In data set [11], this compound came in with a Cmax of 9.75 ng/mL. This compound also yielded an AUC in the data set listed under Rattus norvegicus [9] of 155 ng·h/mL.
As for `CNC(=O)[C@@H](NC(=O)C(CC(C)C)C(C(=O)NO)C1CCC1)C(C)(C)C` (single isomer, unassigned), the Activity in data set [1] is 20 nM; in data set [2], 3 nM; in data set [3], 50 nM; in data set [4] it was 2 nM.
Regarding `CC(C)CC(C(=O)N[C@H](C(=O)Nc1ccccn1)C(C)(C)C)C(C(=O)NO)C1CCCCC1` (single isomer, unassigned), the figures for the Activity in data set [2], in data set [3] and in data set [4] were 4 nM, 20 nM and 10 nM, respectively.

Source of the values: ChEMBL document CHEMBL1131344, “The synthesis of novel matrix metalloproteinase inhibitors employing the Ireland-Claisen rearrangement” (Bioorg Med Chem Lett, 1998).
